Measurements taken from ChEMBL document CHEMBL4020763, “N-(1H-Pyrazol-3-yl)quinazolin-4-amines as a novel class of casein kinase 1δ/ε inhibitors: Synthesis, biological evaluation and molecular modeling studies” (Bioorg Med Chem Lett, 2017).

How the values were obtained:
MIA PaCa-2 [1] = experiment: Growth inhibition of human MIAPaCa2 cells at 100 uM by MTT assay relative to control; assay type: functional; details: read-out: GI
MDA-MB-468 [2] = experiment: Cytotoxicity against human MDA-MB-468 cells by MTT assay; assay type: functional, cell-based
PANC-1 [3] = experiment: Cytotoxicity against human PANC1 cells by MTT assay; assay type: functional, cell-based
CDK2/Cyclin A2 = CDK2/Cyclin A2 (Homo sapiens, UniProt P24941); experiment: Inhibition of recombinant human CDK2/cyclin A using histone H1 as substrate after 30 mins in presence of ATP by scintillation counting method; assay type: protein-complex assay
[4] = target: Cyclin-dependent kinase 5/CDK5 activator 1 (Homo sapiens) (UniProt Q00535+Q15078); experiment: Inhibition of recombinant human CDK5/p25 expressed in Escherichia coli at 10 uM using histone H1 as substrate after 30 mins in presence of ATP by scintillation counting method relative to control
[5] = Inhibition of porcine brain CK1-delta/epsilon using CSK peptide as substrate after 30 mins in presence of ATP by scintillation counting method; parameters: species or system Sus scrofa
ZR-75-30 [6] = experiment: Growth inhibition of human ZR-7530 cells at 100 uM by MTT assay relative to control; assay type: functional; details: read-out: GI
[7] = target: Dual specificity protein kinase CLK1 (Mus musculus) (UniProt P22518); experiment: Inhibition of recombinant mouse GST-fused CLK1 expressed in Escherichia coli at 10 uM using RS peptide as substrate after 30 mins in presence of ATP by scintillation counting method relative to control
BT-20 [8] = experiment: Growth inhibition of human BT20 cells at 100 uM by MTT assay relative to control; assay type: functional; details: read-out: GI
BT-20 [9] = experiment: Cytotoxicity against human BT20 cells by MTT assay; assay type: functional, cell-based
[10] = target: Dual specificity tyrosine-phosphorylation-regulated kinase 1A (Homo sapiens) (UniProt Q13627); experiment: Inhibition of recombinant full length human GST-fused DYRK1A expressed in Escherichia coli at 10 uM using RS peptide as substrate after 30 mins in presence of ATP by scintillation counting method relative to control
[11] = target: Glycogen synthase kinase-3 (Sus scrofa, UniProt B2LUN4+I6LNT8); experiment: Inhibition of porcine brain GSK-3 alpha/beta using YRRAAVPPSPSLSRHSSPHQpSEDEEE as substrate after 30 mins in presence of ATP by scintillation counting method
[12] = target: CDK2/Cyclin A2 (Homo sapiens) (UniProt P24941+P20248); experiment: Inhibition of recombinant human CDK2/cyclin A at 10 uM using histone H1 as substrate after 30 mins in presence of ATP by scintillation counting method relative to control; assay type: protein-complex assay
ZR-75-1 [13] = experiment: Cytotoxicity against human ZR-75-1 cells by MTT assay; assay type: functional, cell-based
MDA-MB-231 [14] = experiment: Growth inhibition of human MDA-MB-231 cells at 100 uM by MTT assay relative to control; assay type: functional; details: read-out: GI
A549 [15] = experiment: Growth inhibition of human A549 cells at 100 uM by MTT assay relative to control; assay type: functional; details: read-out: GI
Sus scrofa = organism: Sus scrofa; experiment: Inhibition of porcine brain CK1-delta/epsilon at 10 uM using CSK peptide as substrate after 30 mins in presence of ATP by scintillation counting method relative to control
DU-145 = experiment: Growth inhibition of human DU145 cells at 100 uM by MTT assay relative to control; assay type: functional; details: read-out: GI
ZR-75-30 [16] = experiment: Cytotoxicity against human ZR-7530 cells by MTT assay; assay type: functional, cell-based
[17] = Growth inhibition of HEK293 cells at 100 uM by MTT assay relative to control; assay type: cell-based; details: human, read-out: GI
[18] = target: Glycogen synthase kinase-3 (Sus scrofa) (UniProt B2LUN4+I6LNT8); experiment: Inhibition of porcine brain GSK-3 alpha/beta at 10 uM using YRRAAVPPSPSLSRHSSPHQpSEDEEE as substrate after 30 mins in presence of ATP by scintillation counting method relative to control
MDA-MB-468 [19] = experiment: Growth inhibition of human MDA-MB-468 cells at 100 uM by MTT assay relative to control; assay type: functional; details: read-out: GI
MIA PaCa-2 [20] = experiment: Cytotoxicity against human MIAPaCa2 cells by MTT assay; assay type: functional, cell-based
HCT-15 [21] = experiment: Cytotoxicity against human HCT15 cells by MTT assay; assay type: functional, cell-based
[22] = target: CDK9/cyclin T1 (Homo sapiens) (UniProt O60563+P50750); experiment: Inhibition of recombinant human CDK9/cyclin T expressed in insect cells at 10 uM using YSPTSPSYSPTSPSYSPTSPSKKKK as substrate after 30 mins in presence of ATP by scintillation counting method relative to control
MCF7 [23] = experiment: Cytotoxicity against human MCF7 cells by MTT assay; assay type: functional, cell-based
PANC-1 [24] = experiment: Growth inhibition of human PANC1 cells at 100 uM by MTT assay relative to control; assay type: functional; details: read-out: GI
[25] = Inhibition of M-phase starfish oocytes CDK1/cyclin B using histone H1 as substrate after 30 mins in presence of ATP by scintillation counting method; parameters: species or system Asteroidea
HCT-15 [26] = experiment: Growth inhibition of human HCT15 cells at 100 uM by MTT assay relative to control; assay type: functional; details: read-out: GI
Asteroidea = experiment: Inhibition of M-phase starfish oocytes CDK1/cyclin B at 10 uM using histone H1 as substrate after 30 mins in presence of ATP by scintillation counting method relative to control
A549 [27] = experiment: Cytotoxicity against human A549 cells by MTT assay; assay type: functional, cell-based
[28] = target: Dual specificity protein kinase CLK1 (Mus musculus, UniProt P22518); experiment: Inhibition of recombinant mouse GST-fused CLK1 expressed in Escherichia coli using RS peptide as substrate after 30 mins in presence of ATP by scintillation counting method
ZR-75-1 [29] = experiment: Growth inhibition of human ZR-75-1 cells at 100 uM by MTT assay relative to control; assay type: functional; details: read-out: GI
MCF7 [30] = experiment: Growth inhibition of human MCF7 cells at 100 uM by MTT assay relative to control; assay type: functional; details: read-out: GI
MDA-MB-231 [31] = experiment: Cytotoxicity against human MDA-MB-231 cells by MTT assay; assay type: functional, cell-based
HEK293 = experiment: Cytotoxicity against HEK293 cells by MTT assay; assay type: cell-based; details: Homo sapiens

Chain of Dual specificity protein kinase CLK1 (Mus musculus) (P22518 whole entry, looked up, the tested form may be a part): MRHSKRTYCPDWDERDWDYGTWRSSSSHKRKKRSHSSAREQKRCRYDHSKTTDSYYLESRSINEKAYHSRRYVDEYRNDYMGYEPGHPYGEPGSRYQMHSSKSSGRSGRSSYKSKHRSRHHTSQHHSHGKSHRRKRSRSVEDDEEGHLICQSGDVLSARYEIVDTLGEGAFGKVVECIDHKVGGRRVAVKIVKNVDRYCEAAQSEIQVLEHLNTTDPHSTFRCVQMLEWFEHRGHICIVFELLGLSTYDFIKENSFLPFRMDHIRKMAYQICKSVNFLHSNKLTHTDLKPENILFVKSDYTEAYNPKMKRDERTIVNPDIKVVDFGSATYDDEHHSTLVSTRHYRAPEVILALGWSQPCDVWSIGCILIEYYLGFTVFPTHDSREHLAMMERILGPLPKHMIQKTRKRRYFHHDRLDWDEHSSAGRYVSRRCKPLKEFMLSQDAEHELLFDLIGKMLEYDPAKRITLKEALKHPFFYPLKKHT
Chain of Dual specificity protein kinase CLK1 (P22518 whole entry, the tested form may be a part): as the sequence (P22518 whole entry, looked up, the tested form may be a part) above
Chain of Cyclin-dependent kinase 5/CDK5 activator 1 (Homo sapiens) (Q00535 whole entry): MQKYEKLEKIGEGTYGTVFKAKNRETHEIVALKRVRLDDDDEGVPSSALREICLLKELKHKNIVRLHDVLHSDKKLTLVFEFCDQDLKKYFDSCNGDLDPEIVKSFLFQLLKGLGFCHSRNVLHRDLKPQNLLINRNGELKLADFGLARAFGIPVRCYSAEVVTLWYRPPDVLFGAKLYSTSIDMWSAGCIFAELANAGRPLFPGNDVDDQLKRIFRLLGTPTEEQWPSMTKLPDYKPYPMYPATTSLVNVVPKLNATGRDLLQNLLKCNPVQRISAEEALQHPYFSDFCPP
Chain of Cyclin-dependent kinase 5/CDK5 activator 1 (Homo sapiens) (Q15078 99-307 partner limits assumed): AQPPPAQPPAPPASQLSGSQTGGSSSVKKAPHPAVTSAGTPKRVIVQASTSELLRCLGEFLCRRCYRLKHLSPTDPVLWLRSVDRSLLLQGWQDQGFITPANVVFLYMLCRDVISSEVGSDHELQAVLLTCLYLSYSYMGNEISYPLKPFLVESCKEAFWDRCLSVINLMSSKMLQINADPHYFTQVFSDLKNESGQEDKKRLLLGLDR

Row | Compound | inhibition of growth at 100 µM (MIA PaCa-2 [1]) [%] | IC50 (MDA-MB-468 [2]) [µM] | IC50 (PANC-1 [3]) [µM] | IC50 (CDK2/Cyclin A2) [µM] | inhibition [4] [%] | IC50 [5] [µM] | inhibition of growth at 100 µM (ZR-75-30 [6]) [%] | inhibition [7] [%] | inhibition of growth at 100 µM (BT-20 [8]) [%] | IC50 (BT-20 [9]) [µM] | inhibition [10] [%] | IC50 [11] [µM] | inhibition [12] [%] | IC50 (ZR-75-1 [13]) [µM] | inhibition of growth at 100 µM (MDA-MB-231 [14]) [%] | inhibition of growth at 100 µM (A549 [15]) [%] | inhibition (Sus scrofa) [%] | inhibition of growth at 100 µM (DU-145) [%] | IC50 (ZR-75-30 [16]) [µM] | inhibition at 100 µM [17] [%] | further results
1 | COc1cc2ncnc(Nc3cc(-c4ccccc4)n(-c4ccccc4)n3)c2cc1OC | > 50 | > 100 | 70.7 | > 10 | > 50 | < 10 | > 50 | > 50 | > 50 | > 100 | > 50 | > 10 | > 50 | > 100 | > 50 | > 50 | > 50 | > 50 | 58.8 | > 50 | inhibition [18]: > 50%; inhibition of growth at 100 µM (MDA-MB-468 [19]): > 50%; IC50 (MIA PaCa-2 [20]): 72.9 µM; IC50 (HCT-15 [21]): < 100 µM; inhibition [22]: > 50%; IC50 (MCF7 [23]): > 100 µM; inhibition of growth at 100 µM (PANC-1 [24]): > 50%; IC50 [25]: > 10 µM; inhibition of growth at 100 µM (HCT-15 [26]): > 50%; inhibition (Asteroidea): > 50%; IC50 (A549 [27]): < 100 µM; IC50 [28]: > 10 µM; inhibition of growth at 100 µM (ZR-75-1 [29]): > 50%; inhibition of growth at 100 µM (MCF7 [30]): > 50%; IC50 (MDA-MB-231 [31]): 72.9 µM; IC50 (HEK293): > 100 µM
2 | COc1cc2ncnc(Nc3cc(-c4ccc(F)cc4)[nH]n3)c2cc1OC | > 50 | > 100 | 69.4 | > 10 | > 50 | 1.4 | > 50 | > 50 | > 50 | > 100 | > 50 | > 10 | > 50 | > 100 | > 50 | > 50 | > 50 | > 50 | > 100 | > 50 | inhibition [18]: > 50%; inhibition of growth at 100 µM (MDA-MB-468 [19]): > 50%; IC50 (MIA PaCa-2 [20]): > 100 µM; IC50 (HCT-15 [21]): > 100 µM; inhibition [22]: > 50%; IC50 (MCF7 [23]): > 100 µM; inhibition of growth at 100 µM (PANC-1 [24]): > 50%; IC50 [25]: > 10 µM; inhibition of growth at 100 µM (HCT-15 [26]): > 50%; inhibition (Asteroidea): > 50%; IC50 (A549 [27]): > 100 µM; IC50 [28]: > 10 µM; inhibition of growth at 100 µM (ZR-75-1 [29]): > 50%; inhibition of growth at 100 µM (MCF7 [30]): > 50%; IC50 (MDA-MB-231 [31]): > 100 µM; IC50 (HEK293): > 100 µM
3 | COc1cc2ncnc(Nc3cc(-c4ccc(Cl)cc4)[nH]n3)c2cc1OC | > 50 | 79.5 | > 100 | > 10 | > 50 | < 10 | > 50 | > 50 | > 50 | > 100 | > 50 | > 10 | > 50 | > 100 | > 50 | > 50 | > 50 | > 50 | 91.5 | > 50 | inhibition [18]: > 50%; inhibition of growth at 100 µM (MDA-MB-468 [19]): > 50%; IC50 (MIA PaCa-2 [20]): < 100 µM; IC50 (HCT-15 [21]): 98.2 µM; inhibition [22]: > 50%; IC50 (MCF7 [23]): > 100 µM; inhibition of growth at 100 µM (PANC-1 [24]): > 50%; IC50 [25]: > 10 µM; inhibition of growth at 100 µM (HCT-15 [26]): > 50%; inhibition (Asteroidea): > 50%; IC50 (A549 [27]): > 100 µM; IC50 [28]: > 10 µM; inhibition of growth at 100 µM (ZR-75-1 [29]): > 50%; inhibition of growth at 100 µM (MCF7 [30]): > 50%; IC50 (MDA-MB-231 [31]): < 100 µM; IC50 (HEK293): 81.2 µM
